From US6413978B1, “Basic derivatives of benz[e] isoindol-1-ones and pyrrolo[3,4-c] quinolin-1-ones with 5-HT3-antagonistic activity, their preparation and their therapeutic use” (Rotta Research Laboratorium S.p.A., priority 1998, dated 2002) come the findings set out here.

Molecules are shown by their SMILES. Read-outs that look alike come from different tables or passages of the source.

The target of one data set is T1, 5-HT1A receptors (Rattus norvegicus, UniProt P19327).
T1 construct: from tissue; host or cells: rat hippocampus
T1 sequence (P19327 1-422): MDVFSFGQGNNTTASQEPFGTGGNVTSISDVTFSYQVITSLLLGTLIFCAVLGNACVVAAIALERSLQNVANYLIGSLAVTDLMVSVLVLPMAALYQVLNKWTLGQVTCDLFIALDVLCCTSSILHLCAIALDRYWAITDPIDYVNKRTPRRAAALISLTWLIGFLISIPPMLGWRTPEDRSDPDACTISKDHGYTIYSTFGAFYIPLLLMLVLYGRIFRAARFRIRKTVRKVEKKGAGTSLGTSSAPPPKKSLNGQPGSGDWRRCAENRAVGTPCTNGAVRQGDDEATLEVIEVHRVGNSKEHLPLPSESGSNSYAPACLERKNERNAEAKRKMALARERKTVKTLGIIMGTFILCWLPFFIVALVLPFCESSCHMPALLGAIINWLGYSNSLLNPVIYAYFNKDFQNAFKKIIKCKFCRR
The data set can be described thus: Affinity for the 5-HT1A receptors, [3H]-8-OH DPAT binding. Particulars: for Ki ± SE, 5-HT1A Subtype ([3H]-8OH-DPAT): rat hippocampus, 10 min, 37° C., IN (10^−6M) where no Ki is given. As to the method:
d) Affinity for the 5-HT1A Receptors
The method of Hall et al (J. Neurochem. 1985, 44, 1685-1696) was followed with slight modifications. Rat hippocampus was used to produce a pellet having a final concentration of 4 mg of tissue/sample. Specific activity of the tracer: 137 Ci/mmole; incubation time 10 min; incubation temperature: 37° C.

Another data set deals with T2, serotonin uptake site (Rattus norvegicus, UniProt P31652).
T2 construct: from tissue; host or cells: entire rat brain
The data set can be described thus: Affinity for the serotonin uptake site, [3H]-paroxetine binding. How it is done: The method of Plenge et al (Eur. J. Pharmacol., 1990, 189, 129-134) was followed with slight modifications. The entire rat brain was used to produce a pellet having a final concentration of 2 mg of tissue/sample. Specific activity of the tracer: 29.7 Ci/mmole; incubation time: 60 min.; incubation temperature: 25° C.

Another data set concerns the target T3, 5-HT2A Subtype (Rattus norvegicus, UniProt P14842).
T3 construct: from tissue; host or cells: rat prefrontal cortex
The data set can be described thus: Affinity for the 5HT2 receptors, [3H]-ketanserine binding. The following applies: for Ki: read-out: Ki ± SE, 5-HT2A Subtype ([3R]-ketanserine). How it is done:
c) Affinity for the 5HT2 Receptors
The method of Leysen et al (Mol. Pharmacol. 1982, 21, 301-314) was followed with slight modifications. Rat prefrontal cortex was used to produce a pellet having a final concentration of 8 mg of tisssue/sample. Specific activity of the tracer: 80.9 Ci/mmole; incubation time: 20 min; incubation temperature: 37° C.

For a further data set, the target named is T4, 5-HT3 receptors (Rattus norvegicus, UniProt P35563).
T4 construct: from tissue; host or cells: rat cortex and hippocampus
T4 sequence (P35563 24-483): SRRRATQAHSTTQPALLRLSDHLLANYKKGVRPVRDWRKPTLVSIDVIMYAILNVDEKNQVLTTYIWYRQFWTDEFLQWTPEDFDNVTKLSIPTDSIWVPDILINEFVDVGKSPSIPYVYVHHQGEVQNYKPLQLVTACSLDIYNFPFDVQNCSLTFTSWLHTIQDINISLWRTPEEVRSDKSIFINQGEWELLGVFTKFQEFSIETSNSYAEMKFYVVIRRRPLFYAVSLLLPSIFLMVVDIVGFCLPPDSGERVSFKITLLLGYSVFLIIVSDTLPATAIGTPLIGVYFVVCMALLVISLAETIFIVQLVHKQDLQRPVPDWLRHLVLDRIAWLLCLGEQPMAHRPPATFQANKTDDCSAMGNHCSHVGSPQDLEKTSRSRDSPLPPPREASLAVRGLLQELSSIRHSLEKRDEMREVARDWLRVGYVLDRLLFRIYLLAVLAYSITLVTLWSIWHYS
The data set can be described thus: Affinity for the 5-HT3 receptors, [3H]-BRL43694 (Granisetron) binding. As to the method: a) Affinity for the 5-HT3 Receptors
The method of Nelson et al. (Biochem. Pharmacol. 1989, 38, 1693-95) was followed with slight modifications. Rat cortex and hippocampus were used to produce a pellet having a final concentration of 20 mg of tissue/sample. Specific activity of the tracer: 81 Ci/mmole; incubation time: 30 min; incubation temperature: 25° C.

The mark [1] stands for this setting: entire rat brain, 60 min, 25° C., read-out: Ki ± SE, 5-HT Uptake ([3H]-paroxetin).
[2] abbreviates: rat prefrontal cortex, 20 min, 37° C., IN (10^−6M) where no Ki is given.

T3 sequence (P14842 whole entry): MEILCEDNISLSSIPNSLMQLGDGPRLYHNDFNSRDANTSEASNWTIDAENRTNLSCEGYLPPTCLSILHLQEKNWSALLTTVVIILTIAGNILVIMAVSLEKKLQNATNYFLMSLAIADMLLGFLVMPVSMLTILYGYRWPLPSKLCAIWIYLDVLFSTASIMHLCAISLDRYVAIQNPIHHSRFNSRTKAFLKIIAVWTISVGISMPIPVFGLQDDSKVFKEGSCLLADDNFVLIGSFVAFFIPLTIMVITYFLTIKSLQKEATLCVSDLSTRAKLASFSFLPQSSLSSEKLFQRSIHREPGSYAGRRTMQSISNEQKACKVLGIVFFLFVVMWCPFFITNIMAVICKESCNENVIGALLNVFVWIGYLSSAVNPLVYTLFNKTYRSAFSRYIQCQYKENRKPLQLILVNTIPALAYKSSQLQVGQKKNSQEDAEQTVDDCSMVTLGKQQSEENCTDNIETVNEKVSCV
T2 sequence (P31652 whole entry): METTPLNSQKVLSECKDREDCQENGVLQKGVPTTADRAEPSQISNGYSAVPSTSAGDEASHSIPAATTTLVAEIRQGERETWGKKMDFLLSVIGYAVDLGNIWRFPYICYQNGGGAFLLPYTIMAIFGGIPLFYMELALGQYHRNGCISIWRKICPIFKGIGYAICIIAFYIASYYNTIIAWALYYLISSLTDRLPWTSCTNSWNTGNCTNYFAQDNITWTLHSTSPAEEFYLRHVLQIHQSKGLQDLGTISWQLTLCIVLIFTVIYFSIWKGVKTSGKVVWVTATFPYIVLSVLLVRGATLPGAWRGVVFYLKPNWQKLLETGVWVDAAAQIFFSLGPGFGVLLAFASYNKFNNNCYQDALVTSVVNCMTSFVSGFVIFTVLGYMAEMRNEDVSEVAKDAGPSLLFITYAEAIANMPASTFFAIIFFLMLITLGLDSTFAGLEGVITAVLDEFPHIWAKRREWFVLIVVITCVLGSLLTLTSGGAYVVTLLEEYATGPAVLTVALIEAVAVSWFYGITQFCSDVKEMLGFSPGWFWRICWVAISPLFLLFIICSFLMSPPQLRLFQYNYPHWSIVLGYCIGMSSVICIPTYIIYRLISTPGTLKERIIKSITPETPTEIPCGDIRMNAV

Molecule `O=C1c2c(ccc3ccccc23)CN1C1CN2CCC1CC2` (racemic) [Compound 6, (R,S)-2-[1-azadicyclo[2.2.2]oct-3-yl]-2,3-dihydro-1H-benz[e]isoindol-1-one] yielded a melting point of 153 to 154 °C. On 5-HT1A receptors, the “Ki ± SE, 5-HT1A Subtype ([3H]-8OH-DPAT)” value is “IN (10^−6M)”. Further, on serotonin uptake site, the Ki came out at 0.0958 ± 0.0096 µM. Moreover, on 5-HT2A Subtype, the Ki was determined as 26.5 ± 8.7 µM. Besides, on 5-HT3 receptors, the affinity, expressed as Ki, was 0.0007 ± 8e-05 µM.
On to `O=C1c2c(cnc3ccccc23)CN1C1CN2CCC1CC2` (racemic) [Compound 9, (R,S)-2-[1-azadicyclo[2.2.2]oct-3-yl]-2,3-dihydro-1H-pyrrolo[3,4-c]quinolin-1-one], for which the “Ki ± SE, 5-HT1A Subtype ([3H]-8OH-DPAT)” value at 5-HT1A receptors is listed as “IN (10^−6M)”. Moreover, the Ki on serotonin uptake site (setting [1]) came to 0.124 ± 0.022 µM; at 5-HT3 receptors it was 0.0016 ± 0.0006 µM. In addition, the “Ki ± SE, 5-HT2A Subtype ([3R]-ketanserine)” value (“Ki ± SE, 5-HT2A Subtype” below) at 5-HT2A Subtype (setting [2]) is “IN (10^−6M)”.
Turning to `O=[N+]([O-])c1ccc2nc(N3CCNCC3)ccc2c1` [6-NO2-quipazine, reference compound], the Ki at serotonin uptake site (setting [1]) is 0.00012 ± 1e-05 µM.
Consider `CN1[C@@H]2CC[C@H]1C[C@@H](N1Cc3ccc4ccccc4c3C1=O)C2` [Compound 1], for which the Ki on 5-HT1A receptors (read-out: Ki ± SE, 5-HT1A Subtype ([3H]-8OH-DPAT)) came out at 30.6 ± 6.46 µM; at serotonin uptake site (setting [1]), 0.632 ± 0.051 µM; on 5-HT2A Subtype, 21.1 ± 2.3 µM; on 5-HT3 receptors, 0.001 ± 0.0002 µM.
With `CN1[C@@H]2CC[C@H]1C[C@@H](N1Cc3cnc4ccccc4c3C1=O)C2` [Compound 2, endo-2-[8-methyl-8-azadicyclo[3.2.1]oct-3-yl]-2,3-dihydro-1H-pyrrolo[3,4-c]quinolin-1-one], the melting point fell in the range of 153 to 154 °C. For the same molecule, the “Ki ± SE, 5-HT1A Subtype ([3H]-8OH-DPAT)” value at 5-HT1A receptors is given as “IN (10^−6M)”. The Ki at serotonin uptake site (setting [1]) worked out at 0.503 ± 0.086 µM. Moreover, at 5-HT2A Subtype (setting [2]), the “Ki ± SE, 5-HT2A Subtype” value was “IN (10^−6M)”. Further, the Ki at 5-HT3 receptors was found to be 0.0013 ± 0.0002 µM.
As for `CN1[C@@H]2CC[C@H]1C[C@@H](N1Cc3c(Cl)nc4ccccc4c3C1=O)C2` [Compound 3, endo-2-[8-methyl-8-azadicyclo[3.2.1]oct-3-yl]-2,3-dihydro-4-chloro-1H-pyrrolo[3,4-c]quinolin-1-one], the melting point is 169 to 171 °C. Also, the “Ki ± SE, 5-HT1A Subtype ([3H]-8OH-DPAT)” value at 5-HT1A receptors is listed as “IN (10^−6M)”. For the same molecule, at serotonin uptake site (setting [1]), the inhibition constant (Ki) is 0.175 ± 0.03 µM. Moreover, the “Ki ± SE, 5-HT2A Subtype” value on 5-HT2A Subtype (setting [2]) is on record as “IN (10^−6M)”. At 5-HT3 receptors, this molecule returned a Ki of 0.0026 ± 0.0004 µM.
Molecule `CCCOc1nc2ccccc2c2c1CN(C1CC3CCC(C1)N3C)C2=O` (stereo not drawn) [Compound 4, endo-2-[8-methyl-8-azadicyclo[3.2.1]oct-3-yl]-2,3-dihydro-4-propoxy-1H-pyrrolo[3,4-c]quinolin-1-one] yielded a melting point of 170 to 171 °C. For the same molecule, at 5-HT1A receptors, the “Ki ± SE, 5-HT1A Subtype ([3H]-8OH-DPAT)” value is “IN (10^−6M)”. The Ki at serotonin uptake site (setting [1]) stood at 0.108 ± 0.015 µM. The “Ki ± SE, 5-HT2A Subtype” value on 5-HT2A Subtype (setting [2]) was “IN (10^−6M)”. On 5-HT3 receptors, this molecule returned a Ki of 0.0007 ± 0.0002 µM.
Take `CN1[C@@H]2CC[C@H]1C[C@@H](N1Cc3c(O)nc4ccccc4c3C1=O)C2` [Compound 5, endo-2-[8-methyl-8-azadicyclo[3.2.1]oct-3-yl]-2,3-dihydro-4-hydroxy-1H-pyrrolo[3,4-c]quinolin-1-one]: the melting point lay within 245 to 246 °C. The “Ki ± SE, 5-HT1A Subtype ([3H]-8OH-DPAT)” value at 5-HT1A receptors is reported as “IN (10^−6M)”. Also, the Ki at serotonin uptake site (setting [1]) was determined as 0.485 ± 0.037 µM. Further, the “Ki ± SE, 5-HT2A Subtype” value on 5-HT2A Subtype (setting [2]) is reported as “IN (10^−6M)”. Also, the Ki at 5-HT3 receptors was 0.0009 ± 6e-05 µM.
`O=C1c2c(ccc3ccccc23)CN1[C@@H]1CN2CCC1CC2` [Compound 7, (S)-2-[1-azadicyclo[2.2.2]oct-3-yl]-2,3-dihydro-1H-benz[e]isoindol-1-one] came in with a melting point of 152 to 154 °C. In addition, at 5-HT3 receptors, the inhibition constant Ki amounted to 0.0003 ± 9e-05 µM and the “affinity for the 5-HT3 receptor (in words)” value is given as “sub-nanomolar”.
Take `O=C1c2c(ccc3ccccc23)CN1[C@H]1CN2CCC1CC2` [Compound 8, (R)-2-[1-azadicyclo[2.2.2]oct-3-yl]-2,3-dihydro-1H-benz[e]isoindol-1-one]: the melting point lay within 155 to 157 °C. The same molecule gave a Ki at 5-HT3 receptors of 0.0018 ± 0.0005 µM.
In the case of `CN1[C@@H]2CC[C@H]1C[C@H](N1Cc3ccc4ccccc4c3C1=O)C2` [Compound 10, reference compound], affinity at 5-HT3 receptors was put at a Ki of 0.0855 ± 0.016 µM. Further, the “less active than Compound 1 at the 5HT3 receptor” value on 5-HT3 receptors (relative to Compound 1) is ~2 orders of logarithmic magnitude.
Take `CN1[C@@H]2CC[C@H]1C[C@@H](N1Cc3nc4ccccc4cc3C1=O)C2` [Compound 11, endo-2-[8-methyl-8-azadicyclo[3.2.1]oct-3-yl]-2,3-dihydro-1H-pyrrolo[3,4-b]quinolin-1-one, reference compound]: on 5-HT3 receptors, the Ki stood at 0.087 ± 0.037 µM. Moreover, on 5-HT3 receptors (relative to Compound 2), the “less active than Compound 2 at the 5HT3 receptor” value is recorded as “approximately 60 times”.
With `c1ccc2nc(N3CCNCC3)ccc2c1` [quipazine, reference compound], the Ki at serotonin uptake site (setting [1]) stood at 0.0313 ± 0.0029 µM; on 5-HT2A Subtype (setting [2]), 1.81 ± 0.476 µM.

As a reminder, the melting point is the temperature, or range, at which the solid turns liquid. By Ki is commonly meant a measure of affinity in units of concentration, obtained from inhibition or displacement.
